Assay results: patent US10336762B2 (priority 2017, dated 2019)

Experiments:
TNFα = experiment: cells; assay type: cell-based, human; settings: Homo sapiens, Monocyte, LPS-stimulated human monocytes, TNFα content; read-out: EC50 TNF
IRAK4 enzyme = IRAK4 enzyme (Homo sapiens (Human), UniProt Q9NWZ3); experiment: biochemical; assay type: biochemical; settings: IRAK4 enzyme, TR-FRET (HTRF), 500 μM ATP
Chain of IRAK4 enzyme (Q9NWZ3 whole entry): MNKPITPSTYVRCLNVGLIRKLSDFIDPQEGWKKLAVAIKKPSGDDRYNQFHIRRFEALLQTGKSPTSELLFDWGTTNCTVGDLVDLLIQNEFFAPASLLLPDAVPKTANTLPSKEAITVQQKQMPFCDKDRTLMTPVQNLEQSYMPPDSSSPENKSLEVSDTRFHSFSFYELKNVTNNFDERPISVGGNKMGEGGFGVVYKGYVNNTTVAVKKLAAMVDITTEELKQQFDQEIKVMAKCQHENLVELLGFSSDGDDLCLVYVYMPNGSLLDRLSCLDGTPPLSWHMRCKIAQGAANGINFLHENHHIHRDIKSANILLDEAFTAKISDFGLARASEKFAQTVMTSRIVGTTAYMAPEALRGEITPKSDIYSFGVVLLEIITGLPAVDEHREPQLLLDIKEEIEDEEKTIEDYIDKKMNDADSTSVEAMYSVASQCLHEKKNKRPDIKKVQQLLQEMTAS

Structure (SMILES) | EC50 (TNFα) [nM] | IC50 (IRAK4 enzyme) [nM]
CNC(=O)c1ccc(Nc2cc(-c3ccc4cc(C#N)cnn34)ncc2C(=O)NCC#N)cc1 [Example 451, N-(cyanomethyl)-6-(3-cyanopyrrolo[1,2-b]pyridazin-7-yl)-4-((4-(methylcarbamoyl)phenyl)amino) nicotinamide] | 30 | < 1
CC1(O)CC2(CC(Nc3cc(-c4ccc5cc(C#N)cnn45)ncc3C(=O)NCC#N)C2)C1 (stereo not drawn) [Example 452, N-(cyanomethyl)-6-(3-cyanopyrrolo[1,2-b]pyridazin-7-yl)-4-((6-hydroxy-6-methyl-spiro[3.3]heptan-2-yl)amino)nicotinamide] | 112 | < 1
N#CCNC(=O)c1cnc(-c2ccc3cc(C#N)cnn23)cc1NC1CC2(CC(O)C2)C1 (stereo not drawn) [Example 453, N-(cyanomethyl)-6-(3-cyanopyrrolo[1,2-b]pyridazin-7-yl)-4-((6-hydroxyspiro[3.3]heptan-2-yl)amino) nicotinamide] | 68 | < 1
N#CCNC(=O)c1cnc(-c2ccc3cc(C#N)cnn23)cc1NC12CCC(C(=O)NC3COC3)(CC1)CC2 [Example 454, N-(cyanomethyl)-6-(3-cyanopyrrolo[1,2-b]pyridazin-7-yl)-4-((4-(oxetan-3-ylcarbamoyl)bicyclo[2.2.2]octan-1-yl)amino)nicotinamide] | 207 | < 1
COC(=O)N[C@H]1C[C@H](Nc2cc(-c3ccc4cc(C#N)cnn34)ncc2C(=O)NC[C@@H](F)C(C)(C)O)C1 [Example 455, methyl ((1R,3r)-3-((2-(3-cyanopyrrolo[1,2-b]pyridazin-7-yl)-5-(((R)-2-fluoro-3-hydroxy-3-methylbutyl)carbamoyl)pyridin-4-yl)amino)cyclobutyl)carbamate] | 118 | 1
CC(=O)N[C@H]1C[C@H](Nc2cc(-c3ccc4cc(C#N)cnn34)ncc2C(=O)NC[C@@H](F)C(C)(C)O)C1 [Example 456, 4-(((1r,3R)-3-acetamidocyclobutyl)amino)-6-(3-cyanopyrrolo[1,2-b]pyridazin-7-yl)-N-((R)-2-fluoro-3-hydroxy-3-methylbutyl)nicotinamide] | 394 | 1
COC(=O)N[C@H]1C[C@@H](Nc2cc(-c3ccc4cc(C#N)cnn34)ncc2C(=O)NC[C@@H](F)C(C)(C)O)C1 [Example 457, methyl ((1S,3s)-3-((2-(3-cyanopyrrolo[1,2-b]pyridazin-7-yl)-5-(((R)-2-fluoro-3-hydroxy-3-methylbutyl)carbamoyl)pyridin-4-yl)amino)cyclo-butyl)carbamate] | 370 | 3
CC(=O)N[C@H]1C[C@@H](Nc2cc(-c3ccc4cc(C#N)cnn34)ncc2C(=O)NC[C@@H](F)C(C)(C)O)C1 [Example 458, 4-(((1s,3S)-3-acetamidocyclobutyl)amino)-6-(3-cyano-pyrrolo[1,2-b]pyridazin-7-yl)-N-((R)-2-fluoro-3-hydroxy-3-methylbutyl)nicotinamide] | 2470 | 3
N#CCNC(=O)c1cnc(-c2ccc3cc(C#N)cnn23)cc1N[C@H]1CCC[C@@H](O)C1 [Example 459, N-(cyanomethyl)-6-(3-cyanopyrrolo[1,2-b]pyridazin-7-yl)-4-(((1S,3R)-3-hydroxycyclohexyl)amino) nicotinamide] | 125 | 1
N#CCNC(=O)c1cnc(-c2ccc3cc(C#N)cnn23)cc1NC1COC1 [Example 460, N-(cyanomethyl)-6-(3-cyanopyrrolo[1,2-b]pyridazin-7-yl)-4-(oxetan-3-ylamino) nicotinamide] | 71 | < 1
N#CCNC(=O)c1cnc(-c2ccc3cc(C#N)cnn23)cc1NC1CC1 [Example 461, N-(cyanomethyl)-6-(3-cyanopyrrolo[1,2-b]pyridazin-7-yl)-4-(cyclopropylamino) nicotinamide] | 57 | < 1
CC(C)Nc1cc(-c2ccc3cc(C#N)cnn23)ncc1C(=O)NCC#N [Example 462, N-(cyanomethyl)-6-(3-cyanopyrrolo[1,2-b]pyridazin-7-yl)-4-(isopropylamino) nicotinamide] | 67 | < 1
